Measured values reported in PubChem BioAssay AID192 (DTP/NCI, 2004).
Where “and” joins values, the source holds several entries; their conditions need not be identical. Equal entries are not always repeated. Inconclusive results and toxic doses are left out.

Tested on: BDF1 mice, B16 melanoma ip, median survival T/C
Assay: NCI In Vivo Anticancer Drug Screen. Data for tumor model B16 Melanoma (intraperitoneal) in B6D2F1 (BDF1) mice
Settings: endpoint: median survival time, higher = longer survival
How it was run: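 Transplantable tumor model; survival or tumor size measured; reported as T/C, treated over vehicle control.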

[1] = dose: 6.25 mg/kg/injection, schedule: Q01DX009 (ip), vehicle: Klucel (hydroxypropylcellulose) (HPC)
[2] = dose: 12.5 mg/kg/injection, schedule: Q01DX009 (ip), vehicle: saline with Tween-80
[3] = dose: 25.0 mg/kg/injection, schedule: Q01DX009 (ip), vehicle: saline with Tween-80
[4] = dose: 50.0 mg/kg/injection, schedule: Q01DX009 (ip), vehicle: saline with Tween-80
[5] = dose: 100.0 mg/kg/injection, schedule: Q01DX009 (ip), vehicle: saline with Tween-80
[6] = dose: 200.0 mg/kg/injection, schedule: Q01DX009 (ip), vehicle: saline with Tween-80
[7] = dose: 400.0 mg/kg/injection, schedule: Q01DX009 (ip), vehicle: saline with Tween-80
[8] = dose: 50.0 mg/kg/injection, schedule: Q01DX009 (ip), vehicle: Klucel (hydroxypropylcellulose) (HPC)
[9] = dose: 100.0 mg/kg/injection, schedule: Q01DX009 (ip), vehicle: Klucel (hydroxypropylcellulose) (HPC)
[10] = dose: 200.0 mg/kg/injection, schedule: Q01DX009 (ip), vehicle: Klucel (hydroxypropylcellulose) (HPC)
[11] = dose: 400.0 mg/kg/injection, schedule: Q01DX009 (ip), vehicle: Klucel (hydroxypropylcellulose) (HPC)
[12] = dose: 6.25 mg/kg/injection, schedule: Q01DX009 (ip), vehicle: other
[13] = dose: 12.5 mg/kg/injection, schedule: Q01DX009 (ip), vehicle: other
[14] = dose: 25.0 mg/kg/injection, schedule: Q01DX009 (ip), vehicle: other
[15] = dose: 100.0 mg/kg/injection, schedule: Q01DX009 (ip), vehicle: saline
[16] = dose: 200.0 mg/kg/injection, schedule: Q01DX009 (ip), vehicle: saline
[17] = dose: 400.0 mg/kg/injection, schedule: Q01DX009 (ip), vehicle: saline
[18] = dose: 12.5 mg/kg/injection, schedule: Q01DX009 (ip), vehicle: saline
[19] = dose: 25.0 mg/kg/injection, schedule: Q01DX009 (ip), vehicle: saline
[20] = dose: 50.0 mg/kg/injection, schedule: Q01DX009 (ip), vehicle: saline
[21] = dose: 12.5 mg/kg/injection, schedule: Q01DX009 (ip), vehicle: Klucel (hydroxypropylcellulose) (HPC)
[22] = dose: 25.0 mg/kg/injection, schedule: Q01DX009 (ip), vehicle: Klucel (hydroxypropylcellulose) (HPC)

CCC(=O)NC1=C(N2CC2C)C(=O)C(NC(=O)CC)=C(N2CC2C)C1=O (centres undefined)
T/C (dose: 0.39 mg/kg/injection, schedule: Q01DX009 (ip), vehicle: Klucel (hydroxypropylcellulose) (HPC)): 119 % of control | T/C (dose: 0.78 mg/kg/injection, schedule: Q01DX009 (ip), vehicle: Klucel (hydroxypropylcellulose) (HPC)): 95 % of control | T/C (dose: 1.56 mg/kg/injection, schedule: Q01DX009 (ip), vehicle: Klucel (hydroxypropylcellulose) (HPC)): 111 % of control | T/C (dose: 3.12 mg/kg/injection, schedule: Q01DX009 (ip), vehicle: Klucel (hydroxypropylcellulose) (HPC)): 102 % of control | T/C [1]: 123 % of control

O=CC=O
T/C [2]: 104 % of control | T/C [3]: 106 % of control | T/C [4]: 108 % of control | T/C [5]: 123 % of control

CO[C@H]1C[C@@H]2CC[C@@H](C)[C@@](O)(O2)C(=O)C(=O)N2CCCC[C@H]2C(=O)O[C@H]([C@H](C)C[C@@H]2CC[C@@H](O)[C@H](OC)C2)CC(=O)[C@H](C)C=C(C)[C@@H](O)[C@@H](OC)C(=O)[C@H](C)C[C@H](C)/C=C/C=C/C=C1C
T/C (dose: 190.0 mg/kg/injection, schedule: Q01DX001 (ip), vehicle: saline with Tween-80): 159 % of control | T/C [6]: 110 % of control | T/C (dose: 380.0 mg/kg/injection, schedule: Q01DX001 (ip), vehicle: saline with Tween-80): 112 % of control | T/C [7]: 109 % of control | T/C (dose: 760.0 mg/kg/injection, schedule: Q01DX001 (ip), vehicle: saline with Tween-80): 123 % of control

CCCC(NC(=O)C(C)Br)C(=O)O (centres undefined)
T/C [4]: 101 % of control | T/C [5]: 87 % of control

NNC(=O)Cc1nc2ccccc2[nH]c1=O
T/C [8]: 96 % of control | T/C [9]: 96 % of control | T/C [10]: 90 % of control

Oc1ccc2ccccc2c1N=Nc1ccc(Cl)cc1
T/C [7]: 90 % of control

COc1ccc(COC(=O)CN2C(=O)c3ccccc3C2=O)cc1
T/C [9]: 105 % of control | T/C [10]: 107 % of control | T/C [11]: 100 % of control

CCCN(C)/N=N/c1[nH]ncc1C(N)=O
T/C (dose: 17.0 mg/kg/injection, schedule: Q01DX009 (ip), vehicle: saline with Tween-80): 114 % of control | T/C (dose: 37.0 mg/kg/injection, schedule: Q01DX009 (ip), vehicle: saline with Tween-80): 111 % of control | T/C [4]: 121 % of control

COc1ccc(CN(CCOC(=O)c2ccc(OC)cc2)CCN(CCOC(=O)c2ccc(OC)cc2)Cc2ccc(OC)cc2)cc1
T/C (dose: 3.12 mg/kg/injection, schedule: Q01DX009 (ip), vehicle: other): 100 % of control | T/C [12]: 89 % of control | T/C [13]: 90 % of control | T/C [14]: 92 % of control

CCCCNC(=O)Nc1ccc(C(=O)OCCCC)cc1
T/C [4]: 96 % of control | T/C [5]: 95 % of control | T/C [6]: 93 % of control

CC(=N\O)/C(C)=N/O.CC(=N\O)/C(C)=N/O.[Pd]
T/C (dose: 0.75 mg/kg/injection, schedule: Q01DX009 (ip), vehicle: Klucel (hydroxypropylcellulose) (HPC)): 96 % of control | T/C (dose: 1.57 mg/kg/injection, schedule: Q01DX009 (ip), vehicle: Klucel (hydroxypropylcellulose) (HPC)): 95 % of control | T/C (dose: 3.13 mg/kg/injection, schedule: Q01DX009 (ip), vehicle: Klucel (hydroxypropylcellulose) (HPC)): 96 % of control | T/C [1]: 94 % of control

COCCN1CCC(C)(CO)C1 (centres undefined)
T/C [15]: 106 % of control | T/C [16]: 100 % of control | T/C [17]: 93 % of control

CNNCc1ccc(/C=N/NC(N)=S)cc1
T/C (dose: 12.5 mg/kg/injection, schedule: Q01DX009 (ip), vehicle: water): 105 % of control | T/C (dose: 25.0 mg/kg/injection, schedule: Q01DX009 (ip), vehicle: water): 100 % of control | T/C (dose: 50.0 mg/kg/injection, schedule: Q01DX009 (ip), vehicle: water): 99 % of control | T/C (dose: 100.0 mg/kg/injection, schedule: Q01DX009 (ip), vehicle: water): 97 % of control

O=C1C(=O)c2cccc3cccc1c23
T/C [18]: 88 % of control | T/C [19]: 94 % of control

COc1ccc(Nc2c3ccccc3nc3ccccc23)cc1
T/C [2]: 120 % of control

C[N+](C)(C)CCCC1C2CCC(C2)C1C[N+](C)(C)C (centres undefined)
T/C [18]: 110 % of control | T/C [19]: 110 % of control

O=C(C[n+]1ccc2ccccc2c1)c1ccccc1
T/C [18]: 86 % of control | T/C [19]: 86 % of control | T/C [20]: 100 % of control

CCc1ccccc1N1CCN(C(=O)c2cc(OC)c(OC)c(OC)c2)CC1
T/C [21]: 88 % of control | T/C [22]: 94 % of control | T/C [8]: 94 % of control

Cc1c2ccncc2cc2c1[nH]c1ccccc12
T/C [3]: 119 % of control | T/C [4]: 121 % of control | T/C [5]: 122 % of control

OCCN(CCO)CN(CO)c1nc(N(CO)CN(CCO)CCO)nc(N(CO)CN(CCO)CCO)n1
T/C (dose: 100.0 mg/kg/injection, schedule: Q04DX003 (ip), vehicle: saline): 120 % of control | T/C (dose: 200.0 mg/kg/injection, schedule: Q04DX003 (ip), vehicle: saline): 123 % of control | T/C (dose: 400.0 mg/kg/injection, schedule: Q04DX003 (ip), vehicle: saline): 112 % of control

CN(/N=N/c1nc[nH]c1C(N)=O)C(C)(C)C
T/C (dose: 18.75 mg/kg/injection, schedule: Q04DX002 (ip), vehicle: Klucel (hydroxypropylcellulose) (HPC)): 101 % of control | T/C (dose: 37.5 mg/kg/injection, schedule: Q04DX002 (ip), vehicle: Klucel (hydroxypropylcellulose) (HPC)): 107 % of control | T/C (dose: 75.0 mg/kg/injection, schedule: Q04DX002 (ip), vehicle: Klucel (hydroxypropylcellulose) (HPC)): 98 % of control | T/C [9]: 95 % of control | T/C (dose: 150.0 mg/kg/injection, schedule: Q04DX002 (ip), vehicle: Klucel (hydroxypropylcellulose) (HPC)): 101 % of control | T/C [10]: 90 % of control | T/C (dose: 300.0 mg/kg/injection, schedule: Q04DX002 (ip), vehicle: Klucel (hydroxypropylcellulose) (HPC)): 93 % of control | T/C [11]: 104 % of control

C[C@]12CC[C@H](OC(=O)Cc3ccc(N(CCCl)CCCl)cc3)CC1=CC[C@@H]1[C@@H]2CC[C@]2(C)C(=O)CC[C@@H]12
T/C [5]: 92 % of control | T/C (dose: 100.0 mg/kg/injection, schedule: Q04DX003 (ip), vehicle: saline with Tween-80): 115 % of control | T/C [6]: 97 % of control | T/C (dose: 200.0 mg/kg/injection, schedule: Q04DX003 (ip), vehicle: saline with Tween-80): 105 % of control | T/C (dose: 400.0 mg/kg/injection, schedule: Q04DX003 (ip), vehicle: saline with Tween-80): 105 % of control

COc1cccc(/C=c2\[nH]c(=O)/c(=C/c3cccc(OC)c3OC)[nH]c2=O)c1OC
T/C [21]: 89 % of control | T/C [22]: 99 % of control | T/C [8]: 92 % of control and 96 % of control

N#CSc1ccc(NN)cc1
T/C [12]: 96 % of control | T/C [13]: 114 % of control | T/C [14]: 99 % of control

COC(=O)C(c1ccccc1)C1CCCCN1 (centres undefined)
T/C (dose: 3.12 mg/kg/injection, schedule: Q01DX009 (ip), vehicle: saline): 97 % of control | T/C (dose: 6.25 mg/kg/injection, schedule: Q01DX009 (ip), vehicle: saline): 100 % of control | T/C [18]: 88 % of control | T/C [19]: 88 % of control | T/C [20]: 97 % of control

CN1CCC=C(CN2c3ccccc3Sc3ccc(Cl)cc32)C1
T/C [18]: 95 % of control | T/C [19]: 94 % of control

CC1(C(=O)O)CCC2(C)CCC3(C)C(=CC(=O)C4C5(C)CCC(OC6OC(C(=O)O)C(O)C(O)C6OC6OC(C(=O)O)C(O)C(O)C6O)C(C)(C)C5CCC43C)C2C1 (centres undefined)
T/C [15]: 106 % of control | T/C [16]: 101 % of control | T/C [17]: 102 % of control

O=S(=O)([O-])NC1CCCCC1.O=S(=O)([O-])NC1CCCCC1.[Hg+2].[Hg+2].[Hg+2].[O-2].[O-2]
T/C (dose: 0.12 mg/kg/injection, schedule: Q01DX009 (ip), vehicle: saline): 98 % of control | T/C (dose: 0.25 mg/kg/injection, schedule: Q01DX009 (ip), vehicle: saline): 105 % of control | T/C (dose: 0.5 mg/kg/injection, schedule: Q01DX009 (ip), vehicle: saline): 98 % of control | T/C (dose: 1.0 mg/kg/injection, schedule: Q01DX009 (ip), vehicle: saline): 90 % of control
